Key:
Format in all cases: in vivo
[1] = system: barnyardgrass (Echinochloa crus-galli); assay: Test B flooded paddy test; details: 250 g ai/ha, Flood, visual rating on scale of 0 to 100 where 0 is no effect and 100 is complete control, 13 to 15 d after treatment
How it was run: (§1)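 Plants at the 2-leaf stage were flooded to 3 cm above soil, and test compounds were applied directly into the paddy water, which was held at that depth throughout. After 13 to 15 d in a greenhouse, injury was rated visually against untreated controls on a 0–100 scale (0 no effect, 100 complete control).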

[2] = system: ducksalad (Heteranthera limosa); assay: Test B flooded paddy test; details: 250 g ai/ha, Flood, visual rating on scale of 0 to 100 where 0 is no effect and 100 is complete control, 13 to 15 d after treatment
How it was run: as §1

rice (Oryza sativa) = assay: Test B flooded paddy test; details: 250 g ai/ha, Flood, visual rating on scale of 0 to 100 where 0 is no effect and 100 is complete control, 13 to 15 d after treatment
How it was run: as §1

[3] = system: sedge, umbrella (small-flower umbrella sedge, Cyperus difformis); assay: Test B flooded paddy test; details: 250 g ai/ha, Flood, visual rating on scale of 0 to 100 where 0 is no effect and 100 is complete control, 13 to 15 d after treatment
How it was run: as §1

[4] = system: ragweed (common ragweed, Ambrosia elatior); assay: Test C greenhouse herbicide test, pre- and postemergence
How it was run: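 Preemergence: seeds sown in a loam soil–sand blend and sprayed with test chemicals in a non-phytotoxic solvent mixture containing surfactant. Postemergence: plants grown in peat-based medium and treated at 2 to 18 cm (1- to 4-leaf stage). After 13 to 15 d in a greenhouse, injury was visually rated 0–100 against controls.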

[5] = system: chickweed (common chickweed, Stellaria media); assay: Test C greenhouse herbicide test, postemergence
How it was run: (§2)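 Ratings are visual scores from 0 (no effect) to 100 (complete control), made against controls 13–15 d after treatment. Postemergence sprays were applied in the greenhouse to plants 2–18 cm tall (1- to 4-leaf stage) in peat-moss/vermiculite potting medium.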

kochia (Kochia scoparia) = assay: Test C greenhouse herbicide test, postemergence
How it was run: as §2

[6] = system: oat, wild (wild oat, Avena fatua); assay: Test C greenhouse herbicide test, postemergence
How it was run: as §2

[7] = Postemergence, 31 g ai/ha, scale 0 to 100 (0 no effect, 100 complete control)
[8] = Postemergence, 125 g ai/ha, scale 0 to 100, 0 is no effect, 100 is complete control
[9] = Postemergence, 250 g ai/ha, scale 0 to 100, 0 no effect, 100 complete control, 13 to 15 d
[10] = postemergence, 62 g ai/ha, scale 0 to 100, 0 no effect, 100 complete control
[11] = Postemergence, 16 g ai/ha, scale 0 to 100 (0 no effect, 100 complete control)
[12] = Postemergence, 62 g ai/ha, 0 to 100 scale (0 no effect, 100 complete control)
[13] = postemergence, 125 g ai/ha, scale 0 to 100, 0 no effect, 100 complete control
[14] = Postemergence, 31 g ai/ha, 0 to 100 scale (0 no effect, 100 complete control)
[15] = Preemergence, 31 g ai/ha, scale 0 to 100, 0 is no effect, 100 is complete control
[16] = Preemergence, 62 g ai/ha, scale 0 to 100, 0 is no effect, 100 is complete control
[17] = Preemergence, 125 g ai/ha, scale 0 to 100, 0 is no effect, 100 is complete control
[18] = Preemergence, 250 g ai/ha, scale 0 to 100 (0 no effect, 100 complete control)
[19] = Postemergence, 250 g ai/ha, scale 0 to 100, 0 is no effect, 100 is complete control

Row | SMILES | Plant response rating, Barnyardgrass [1] | Plant response rating, Ducksalad [2] | Plant response rating, Rice (rice (Oryza sativa)) | Plant response rating, Sedge, Umbrella [3] | Plant response rating, Ragweed [4, 7] | Plant response rating, Ragweed [4, 8] | Plant response rating, Ragweed [4, 9] | Plant response rating, Chickweed [5, 8] | Plant response rating, Chickweed [5, 9] | Chickweed plant response rating [5, 10] | Plant response rating, Kochia (kochia (Kochia scoparia); [7]) | Plant response rating, Kochia (kochia (Kochia scoparia); [8]) | Plant response rating, Kochia (kochia (Kochia scoparia); [9]) | Plant response rating, Oat, Wild [6, 7] | Plant response rating, Oat, Wild [6, 8] | Plant response rating, Oat, Wild [6, 9] | Ragweed plant response rating [4, 12] | Ragweed plant response rating [4, 13] | Kochia plant response rating (kochia (Kochia scoparia); [12]) | Kochia plant response rating (kochia (Kochia scoparia); [13]) | other results
1 | Cc1nn(C)c(=O)c(-c2cc(F)cc3ccccc23)c1OS(C)(=O)=O [Compound 115] | 0 | 0 | 0 | 0 | 60 | 95 | 98 | 90 | 90 | 75 | 70 | 90 | 90 | 55 | 80 | 90 | – | – | – | – | Plant response rating, Chickweed [5, 7]: 80
2 | COC(=O)Oc1cnn(C)c(=O)c1-c1c(C)ccc2ccccc12 [Compound 143] | 0 | 0 | 0 | 0 | 0 | – | – | – | – | – | 30 | – | – | 40 | – | – | 30 | 70 | 60 | 60 | Plant response rating, Ragweed [4, 11]: 0; Plant response rating, Chickweed [5, 11]: 30; Plant response rating, Chickweed [5, 7]: 45; Chickweed plant response rating [5, 12]: 70; Chickweed plant response rating [5, 13]: 80; Plant response rating, Kochia (kochia (Kochia scoparia); [11]): 0; Plant response rating, Oat, Wild [6, 11]: 30; Oat, Wild plant response rating [6, 12]: 55; Oat, Wild plant response rating [6, 13]: 60
3 | CC(=O)Oc1c(C)nn(C)c(=O)c1-c1c(C)oc2c(C)cc(C)cc12 [Compound 16, 5-(acetyloxy)-2,6-dimethyl-4-(2,5,7-trimethyl-3-benzofuranyl)-3(2H)-pyridazinone] | – | – | – | – | – | 0 | 30 | 90 | 90 | 80 | – | 20 | 25 | – | 10 | 40 | – | – | – | – | pest or weed control at 250 g/ha ([1]; Echinochloa crus-galli, 360 h, read-out: Plant response rating, Barnyardgrass): 0%; pest or weed control at 250 g/ha ([2]; Heteranthera limosa, 360 h, read-out: Plant response rating, Ducksalad): 30%; plant injury at 250 g/ha (rice (Oryza sativa); Oryza sativa, 360 h, read-out: Plant response rating, Rice): 0%; pest or weed control at 250 g/ha ([3]; Cyperus difformis, 360 h, read-out: Plant response rating, Sedge, Umbrella): 0%; Ragweed plant response rating [4, 14]: 0; Ragweed plant response rating [4, 10]: 0; Chickweed plant response rating [5, 14]: 75; Kochia plant response rating (kochia (Kochia scoparia); [14]): 0; Kochia plant response rating (kochia (Kochia scoparia); [10]): 0; Oat, Wild plant response rating [6, 14]: 5; Oat, Wild plant response rating [6, 10]: 5
4 | CC(=O)Oc1c(C)nn(C)c(=O)c1-c1c(C)sc2c(C)cc(C)cc12 [Compound 27] | 30 | 30 | 40 | 80 | – | 85 | 90 | 100 | 100 | 100 | – | 90 | 90 | – | 95 | 100 | – | – | – | – | Ragweed plant response rating [4, 14]: 70; Plant response rating, Ragweed [4, 15]: 80; Plant response rating, Ragweed [4, 16]: 100; Plant response rating, Ragweed [4, 17]: 100; Ragweed plant response rating [4, 18]: 95; Ragweed plant response rating [4, 10]: 75; Chickweed plant response rating [5, 14]: 95; Kochia plant response rating (kochia (Kochia scoparia); [14]): 75; Kochia plant response rating (kochia (Kochia scoparia); [10]): 80; Oat, Wild plant response rating [6, 14]: 85; Oat, Wild plant response rating [6, 10]: 95
5 | CCOC(=O)Oc1c(C)nn(C)c(=O)c1-c1c(C)ccc2ccccc12 [Compound 73] | 0 | 0 | 0 | 0 | – | 90 | 90 | 95 | 95 | 90 | – | 90 | 100 | – | 95 | 95 | – | – | – | – | Ragweed plant response rating [4, 14]: 85; Plant response rating, Ragweed [4, 15]: 85; Plant response rating, Ragweed [4, 16]: 95; Plant response rating, Ragweed [4, 17]: 95; Ragweed plant response rating [4, 18]: 98; Ragweed plant response rating [4, 10]: 90; Chickweed plant response rating [5, 14]: 90; Kochia plant response rating (kochia (Kochia scoparia); [14]): 90; Kochia plant response rating (kochia (Kochia scoparia); [10]): 90; Oat, Wild plant response rating [6, 14]: 75; Oat, Wild plant response rating [6, 10]: 90
6 | CCC(=O)Oc1c(C)nn(C)c(=O)c1-c1ccc(Br)c2ccccc12 [Compound 133] | 0 | 0 | 20 | 0 | 0 | – | 5 | – | – | – | 98 | – | 100 | 90 | – | 95 | 0 | 5 | 100 | 100 | Plant response rating, Ragweed [4, 15]: 70; Plant response rating, Ragweed [4, 16]: 75; Plant response rating, Ragweed [4, 17]: 95; Ragweed plant response rating [4, 18]: 98; Oat, Wild plant response rating [6, 12]: 90; Oat, Wild plant response rating [6, 13]: 95
7 | Cc1ccc2ccccc2c1-c1c(OC(=O)N2CCOCC2)c(Br)nn(C)c1=O [Compound 176] | 0 | 0 | 0 | 0 | 0 | – | – | – | – | – | 90 | – | – | 0 | – | – | 0 | 0 | 90 | 95 | Plant response rating, Ragweed [4, 19]: 0; Plant response rating, Kochia (kochia (Kochia scoparia); [19]): 100; Oat, Wild plant response rating [6, 12]: 5; Plant response rating, Oat, Wild [6, 19]: 35; Oat, Wild plant response rating [6, 13]: 10
8 | COc1nn(C)c(=O)c(-c2c(C)ccc3ccccc23)c1OC(C)=O [Compound 138] | 0 | 0 | 0 | 0 | 0 | – | 5 | – | – | – | 90 | – | 100 | 50 | – | 90 | 0 | 5 | 95 | 100 | Plant response rating, Ragweed [4, 15]: 95; Plant response rating, Ragweed [4, 16]: 100; Plant response rating, Ragweed [4, 17]: 98; Ragweed plant response rating [4, 18]: 95; Oat, Wild plant response rating [6, 12]: 80; Oat, Wild plant response rating [6, 13]: 80
